Measured values taken from US20100048411A1, “SUBSTRATE FOR THE GROWTH OF CULTURED CELLS IN THREE DIMENSIONS” (REINNERVATE LIMITED, priority 2006, published 2010).

Legend:
Assay type in all cases: cell-based, human
HepG2 cells [1] = assay: MTT viable cell number of HepG2 cells challenged with methotrexate on 2-D and 3-D substrates
Experimental: (§1) The human hepatic carcinoma cell line, HepG2, was obtained from the American Type Culture Collection (ATCC). HepG2 cells were cultured at 37° C. in 5% CO2 in growth medium (Dulbecco's modified Eagle medium (D-MEM, Gibco/BRL) supplemented with 10% (v/v) fetal calf serum (FBS, Gibco/BRL), 100 μg.mL^−1 penicillin and 10 μg.mL^−1 streptomycin (Gibco/BRL)). Cells were passaged every 5-7 days. Confluent cultures of cells were washed with PBS, detached using trypsin/EDTA solution and cell number determined using a hemocytometer. Suspensions of HepG2 cells were then seeded at equal densities either directly into wells of a standard 6-welled plate (Nunc) or into modified well-inserts mounted with the polymer and located in wells of a 6-well plate. Cultures were maintained in growth medium which was changed every 3-4 days or as required.
The number of viable cells was determined using a commercially available calorimetric assay (Promega) based on Mosmann's original method for measuring cell activity involving the conversion of a tetrazolium salt into a blue formazan product detectable by a spectrophotometer (570 nm). The assay was performed according to the manufacturer's instructions on HepG2 cells cultured on 2-D and 3-D substrates for various periods under alternative growth conditions.
(§2) Cells were seeded on 2-D and 3-D surfaces in triplicate and left to settle and adhere for 24 hours. […] Cells were subsequently incubated for 1, 3, 7 or 10 days, after which cultures were sampled and assayed for cell number/viability and levels of albumin and transglutaminase were determined.

HepG2 cells [2] = assay: SEM and TEM morphology of HepG2 cells challenged with methotrexate
Experimental: Cells were seeded on 2-D and 3-D surfaces in triplicate and left to settle and adhere for 24 hours. The medium was then changed and replaced with medium containing different concentrations of MTX (no MTX (vehicle alone, control), 8 μM, 31 μM, and 125 μM). Cells were subsequently incubated for 1, 3, 7 or 10 days, after which cultures were sampled and assayed for cell number/viability and levels of albumin and transglutaminase were determined.
In preparation for SEM, cells grown on 2-D or 3-D substrates were fixed in 2% paraformaldehyde and 2.5% glutaraldehyde in Sorenson's phosphate buffer for 1 hour at room temperature. Samples were then rinsed in 0.1M phosphate buffer and immersed in 1% OsO4 (aq.) solution for 1 hour, then dehydrated in 50%, 70%, 95% and 100% ethanol for 5 minutes, four times for each respective ethanol change. Samples of fixed 2-D and 3-D cultures were then cut into smaller pieces (approximately 25 mm^2), mounted on specimen holders and dried from CO2 at 38° C. at 1200 psi. The samples were then sputter coated with a 7 nm layer of chromium and examined using a Hitachi S5200 SEM.
For TEM analysis, cells grown on 3-D substrates were fixed and treated as described above for SEM. However, subsequent to dehydration and being cut into small pieces, samples were embedded in resin (Araldite CY212, Agar Scientific) for 1 hour at 37° C. and then placed into pyramidal moulds at 60° C. overnight. For the preparation of cells grown on 2-D surfaces, cultures were fixed in 2% paraformaldehyde and 2.5% glutaraldehyde in Sorenson's phosphate buffer for 1 hour at room temperature. Cells were then scrapped from tissue culture plastic and pelleted at 15,000 rpm for 10 min. Pelleted cells were subsequently rinsed in 0.1M phosphate buffer and immersed in 1% OsO4 (aq.) solution for 1 hour, then dehydrated in 50%, 70%, 95% and 100% ethanol for 5 min, for times for each respective ethanol change. The dehydrated cell pellets were then soaked in resin (Araldite CY212) for 60 min at 37° C. […]

HepG2 cells [3] = assay: transglutaminase assay of HepG2 cells challenged with methotrexate
Experimental: as §1, §2
The leakage of this enzyme is often used as a marker for in vitro toxicity testing and its presence indicates damage to cell membranes. […] The level of transglutaminase was analysed by means of a quantitative enzymatic assay (Sigma, UK) as previously described.

HepG2 cells [4] = assay: albumin secretion of HepG2 cells challenged with methotrexate
Experimental: as §1, §2
The production of albumin is often used as an indicator of hepatocyte metabolic activity. Levels of albumin were determined using a commercially available kit (Bioassay systems) based on an established method that utilizes bromocresol green which forms a coloured complex specifically with albumin that is detectable at 620 nm. Known quantities of human albumin were used to establish the standard curve. Specific levels of albumin secretion were normalized to total protein levels (as determined by a standard Bradford assay).

## CN(Cc1cnc2nc(N)nc(N)c2n1)c1ccc(C(=O)N[C@@H](CCC(=O)O)C(=O)O)cc1 [MTX, methotrexate]
HepG2 cells [1]; 3-D cultures, 62 μM MTX, compared to control values
  cell viability (MTT absorbance): significant decrease in absorbance levels
HepG2 cells [1]; HepG2 monolayers (2-D), 15 μM MTX, after 24 hours
  cell viability (MTT absorbance): gradual increase of absorbance
HepG2 cells [1]; cells on 2-D surfaces, increasing MTX concentrations
  cell viability (MTT absorbance): visibly reduced
HepG2 cells [1]; monolayers (2-D), 7 days, 125 μM MTX
  cell viability (MTT absorbance): sharp decrease in absorbance levels
HepG2 cells [2]; 2-D cultures, 8 μM MTX
  ultra-structure (TEM): areas of cellular necrosis were also evident
HepG2 cells [2]; 2-D cultures, high levels of MTX
  ultra-structure (TEM): most cells became necrotic
HepG2 cells [2]; 3-D culture, 125 μM MTX
  ultra-structure (TEM): the nuclear membrane had an irregular morphology
HepG2 cells [3]; 2-D cultures, 31 μM MTX and above, versus 3-D culture
  transglutaminase levels: significantly higher levels of transglutaminase
HepG2 cells [3]; 3-D cultures, increasing concentration of MTX
  transglutaminase levels: did not cause a significant increase in transglutaminase levels
HepG2 cells [4]; cells cultured on scaffolds (3-D), 15.6 μM MTX
  albumin secretion (metabolic activity): did begin to reduce albumin secretion
HepG2 cells [4]; cells grown in 2-D, 8 μM MTX
  albumin secretion (metabolic activity): sensitive
HepG2 cells [4]; cells grown in 3-D, 8 μM MTX
  albumin secretion (metabolic activity): did not significantly influence albumin secretion
